In one test the target is T1, adenosine A1 receptors (Rattus norvegicus, UniProt P25099).
T1 sequence (P25099 1-326): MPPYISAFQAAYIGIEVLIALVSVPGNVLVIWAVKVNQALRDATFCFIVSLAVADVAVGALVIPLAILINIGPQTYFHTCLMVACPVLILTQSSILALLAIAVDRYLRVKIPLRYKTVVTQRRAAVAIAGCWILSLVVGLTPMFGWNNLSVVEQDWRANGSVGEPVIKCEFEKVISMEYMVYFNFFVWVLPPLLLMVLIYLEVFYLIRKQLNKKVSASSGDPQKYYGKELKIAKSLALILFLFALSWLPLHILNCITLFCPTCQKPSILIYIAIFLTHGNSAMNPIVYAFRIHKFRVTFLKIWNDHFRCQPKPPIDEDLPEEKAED
To be noted: from Li et al., Pan et al., U.S. Pat. No. 6,248,774 and 6,489,356; cited from earlier work.

For another test, the system named is adult male rats. Nature of the test: Postincisional hypersensitivity model of postoperative pain (paw incision, withdrawal threshold to von Frey filaments). Type of test: in vivo, rat. To be noted: intrathecal (i.t.) single drug; for anti-hypersensitivity effect (mechanical hypersensitivity), single drug: 24 h after paw incision surgery, 210 min observation. The protocol:
Animal preparation: Following Animal Care and Use Committee approval, an intrathecal (i.t.) catheter with tip in the lumbar space is inserted as previously described in adult male rats weighing 250 g (Yaksh and Rudy, Physiol Behav. 1976, 7, 1032-1036). One week following the insertion of the i.t. catheter, paw incision surgery is performed as previously described (Brennan et al., Pain 1996, 64, 493-501). Briefly, animals are anesthetized with halothane, and a 1-cm long incision is made in the plantar aspect of the left hind paw starting 0.5 cm from the edge of the heel toward the toe after sterile preparation with 70% ethanol. The plantaris muscle is elevated and incised longitudinally. The wound is closed with 2 mattress sutures of 5.0 silk. Subsequently, withdrawal threshold to von Frey filaments is determined one day after surgery (Chaplanet al., J. Neurosci. Methods, 1994, 53, 55-63). For all testing but pilot dose ranging studies, investigators are blinded to study drug administration. A cut off value of 22 g is used.
Experimental Design: Twenty-four hours after paw incision surgery, single drugs and their combinations are studied: T-62, morphine and NBQX.
Single drug injection: For single drug administration, a volume containing 5 μL drug is used, followed by 10 μL of saline. The anti-hypersensitivity effects for single drugs at three doses with logarithmic spacing are studied over a 210 min observation period with testing at 30 min interval. Dose response curves are first constructed, and ED40 values for single drugs are then determined at the time of peak effect.
Drug interaction: For the combination of T-62 with morphine and NBQX, two injections are performed since the time of peak effect for morphine and NBQX is 30 min earlier than that of T-62 (T-62 is injected 30 min before drug injections). Paw withdrawal thresholds are determined before surgery, before drug injection, and 30, 60, 90, 120, 150, 180, and 210 min after the second drug injection. In addition, a fixed fractional dose ratio of 1:1 (w:w) is used for the combination of T-62 with morphine and NBQX. The dose response curves are then constructed for the combined drugs, and the ED40 values of the combined drugs are calculated at the time point of peak effect. Subsequently, isobolograms are constructed based on the ED40 values from single and combined drug administration.
Materials: T-62 may be obtained from King Pharmaceuticals (Cary, N.C.). T-62 is dissolved in saline with 20% DMSO. Morphine may be purchased from Astra Pharmaceutical Products, Inc. (Westborough, Mass.). NBQX and the remaining chemicals may be purchased from Sigma Chemical Co. (St. Louis, Mo.). Saline is used as vehicle for morphine and NBQX.
Data analysis: Data are presented as mean ±S.E. Withdrawal threshold data are analyzed by two-way analysis of variance followed by Fisher's LSD test. P<0.05 is considered significant. Isobolograms are statistically analyzed by student T test.

The subject of another test is male Sprague-Dawley rats. Kind of test: Neuropathic pain model (Chung model, spinal nerve ligation, withdrawal threshold to von Frey filaments). Conditions: for anti-allodynic effect (withdrawal threshold): single intrathecal injection, at least 4 weeks after spinal nerve ligation, up to 20 hr. Type of test: in vivo, rat. The text has this:
Spinal Nerve Ligation: After Animal Care and Use Committee approval, male Sprague-Dawley rats (Harlan, Indianapolis, Ind., USA) weighing 180-200 g undergo anesthesia as previously described by Kim and Chung (Pain 1992, 50, 355-363). Briefly, under general anesthesia with inhalational halothane, the left L5 and L6 spinal nerves are identified through a small laminotomy and tightly ligated. Approximately one week later, an intrathecal catheter is placed under general anesthesia by insertion under direct vision of a polyethylene catheter through a small slit in the dura at the cisterna magnum, and advanced 8.5 cm such that the catheter tip resides in the lower lumbar intrathecal space. Animals are studied approximately one week later. Ligation of the lumbar spinal nerves results in a primarily unilateral increase in the sensitivity to light touch on the operated side. Sensitivity is assessed via application of calibrated von Frey filaments. The withdrawal threshold is determined using an up down method as previously described by Chaplan et al. (J. Neurosci. Methods 1994, 53, 55-63).
Experimental Design: Animals receive, at least 4 weeks after spinal nerve ligation surgery, and at least 1 week after intrathecal catheter insertion, single injections of vehicle (β-cyclodextrin) or the drug substance, using a randomized and blinded protocol. Withdrawal thresholds are determined at intervals for up to 20 hr after injection.

Entries after “also recorded” stand apart in the source; their conditions may differ.

Turning to `Nc1sc2c(c1C(=O)c1ccc(Cl)cc1)CCCC2` [T-62, (2-amino-4,5,6,7-tetrahydrobenzo[b]thiophen-3-yl)(4-chlorophenyl)methanone], the “effect on inflammatory and neuropathic pain” value on adenosine A1 receptors is “reduce inflammatory and neuropathic pain”. Further, the “anti-hypersensitivity effect (mechanical hypersensitivity), single drug” value (from here on “anti-hypersensitivity effect”) with adult male rats is reported as “modest effect; also recorded: reduced mechanical hypersensitivity in a time dependent manner”. In addition, in the test with male Sprague-Dawley rats, the “anti-allodynic effect (withdrawal threshold)” value (shortened to “anti-allodynic effect”) is reported as “dose-dependent anti-allodynic effects”.

In the case of `Nc1sc2c(c1C(=O)c1ccccc1)CCS2` [formula (Ib)], the “anti-allodynic effect” value in the test with male Sprague-Dawley rats was “dose-dependent anti-allodynic effects”.

`Nc1sc2c(c1C(=O)c1cccc3ccccc13)CCC2` [formula (Ic)]: in the test on male Sprague-Dawley rats (Chung model of chronic neuropathic pain, FIG. 8), the “relative potency among the three enhancers” value is listed as “most potent”. In addition, the “anti-allodynic effect” value in the test with male Sprague-Dawley rats is “dose-dependent anti-allodynic effects”.

For `CN1CC[C@]23c4c5ccc(O)c4O[C@H]2[C@@H](O)C=C[C@H]3[C@H]1C5` [Morphine, morphine], in the test with adult male rats, the “time of peak effect after injection” value was 30 min; the “anti-hypersensitivity effect” value is “reduces mechanical hypersensitivity in a time and dose dependent manner”.

On to `NS(=O)(=O)c1cccc2c1c([N+](=O)[O-])cc1nc(O)c(O)nc12` [NBQX, 2,3-dihydroxy-6-nitro-7-sulfamoylbenzo(f)quinoxaline], for which, in the test on adult male rats, the “time of peak effect after injection” value came out at 30 min; the “anti-hypersensitivity effect” value was “reduces the mechanical hypersensitivity in a time and dose dependent manner”.

The values are drawn from patent publication US20080108603A1, “COMBINATION THERAPY FOR THE TREATMENT OF PAIN” (priority 2006, published 2008).
